Like-named read-outs stand apart in the source and are kept apart here.
Assays:
[1] = test system: rat Cyp11B enzyme (rat adrenal mitochondria); assay: CYP11B enzymatic assay (% inhibition at 100 nM) (Biological Example 9); type: biochemical; settings: compound at 100 nM
Description: Adrenals excised from Sprague Dawley rats were homogenized, and mitochondria fraction were prepared by a series of centrifugation as described in Shuji Ohno, et al. J. of Steroid Biochemistry & Molecular Biology 2002, 80, 355-363. Prepared mitochondria protein was washed and resuspended in Buffer B (0.21 M mannitol, 70 mM sucrose, 5 mM MgCl2, 0.5 mM CaCl2, 20 mM Tris-HCl (pH 7.4) and 1 mM DTT, […]). The protein concentration was determined by BCA assay and stored as 10 μL aliquots at −80° C.
The rat Cyp11B enzyme assay was performed in 96-well plates. Typical assays were carried out in total 50 μL volume that included test compounds at 100 nM concentration, 1× Buffer B, 0.5 mM NADPH, 0.1 μM 11-deoxycortisol, and 2 μL of prepared rat adrenal mitochondria (added last). Reaction without test compound served as positive control and reaction without NADPH served as negative control. Reactions were allowed to incubate at 37° C. for 60 min with gentle shaking. The reaction was stopped by directly applying the enzymatic reaction mixture (1:5 diluted in ELISA assay buffer) to ELISA plate for evaluation of cortisol concentration according to manufacturer's protocol (Assay Design).
The mean absorbance value for each sample was used to determine the corresponding concentration from the standard curve. Amount of cortisol in the negative control (reaction that dis not include NADPH) was subtracted from total cortisol. Percent inhibition (inhibition %) of the compound was calculated using normalized cortisol concentration based on following formula: 100−([Cortisol] of compound/[Cortisol] of positive control *100).

[2] = target: T1, CYP17 (human testicular microsome) (Homo sapiens, UniProt P05093); assay: CYP17 enzymatic assay (% inhibition at 1 nM) (Biological Example 12); type: biochemical
T1 construct: using microsomal fraction from human testis (Celsis Cat #S00110) as the enzyme source; tissue Celsis S00110; host or cells: human testis microsomal fraction
T1 sequence (P05093 1-508): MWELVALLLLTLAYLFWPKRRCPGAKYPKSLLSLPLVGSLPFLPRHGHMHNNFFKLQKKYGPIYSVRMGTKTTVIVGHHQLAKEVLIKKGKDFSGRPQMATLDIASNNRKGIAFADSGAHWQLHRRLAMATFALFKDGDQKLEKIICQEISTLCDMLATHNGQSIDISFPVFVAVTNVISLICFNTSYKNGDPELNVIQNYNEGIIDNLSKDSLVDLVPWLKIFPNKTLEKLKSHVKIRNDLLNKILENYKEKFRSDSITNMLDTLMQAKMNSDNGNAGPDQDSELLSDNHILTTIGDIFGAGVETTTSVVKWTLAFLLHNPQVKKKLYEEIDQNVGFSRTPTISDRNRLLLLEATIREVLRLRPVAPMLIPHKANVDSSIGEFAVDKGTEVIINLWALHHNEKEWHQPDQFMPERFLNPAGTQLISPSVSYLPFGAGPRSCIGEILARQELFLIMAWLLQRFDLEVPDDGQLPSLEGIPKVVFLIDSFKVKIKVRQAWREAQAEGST

[3] = Human liver microsome stability assay (Biological Example 8b); settings: liver microsomes, pH 7.4
Description: The reaction was started with addition of excess NADPH (5 mg/mL, 15 μL in 0.1 M potassium phosphate buffer, 1.0 mM EDTA, pH 7.4), the total volume is 45 μL (compound final concentration was 1 μM). […] 50 μL of the supernatant was transferred from each well into a 96-well sample plate containing 50 μL of ultra-pure water (Millipore) for LC-MS/MS analysis.

CYP17 (H295R cells) = target: T2, CYP17 (H295R cells) (Homo sapiens, UniProt P05093); assay: CYP17 cellular assay (IC50), testosterone in H295R cells (Biological Example 7); type: cell-based; settings: H295R cells
T2 construct: endogenous in cells; host or cells: H295R cells
T2 sequence (P05093 1-508): T1 sequence (P05093 1-508)
Description: The assays were performed in 96-well plates. Typically H295R cells were seeded at 4.5×10^4 cells/well in 100 μL Growth Medium containing DMEM/F-12 (Gibco/Invitrogen; 11330-032), 2.5% Nu-Serum (BD Bioscience; 355100) and ITS (BD Bioscience; 354352), and cultured at 37° C., 5% CO2 for 24 hr. The next day, media were carefully removed and cells were washed twice with 200 μL 1×HBSS++. Test compounds were then added to the cells at 100, 10, 1, 0.1 nM final concentrations in 125 μL volume per well in serum-free media containing DMEM/F-12 and ITS+ Premix (BD Bioscience; 354352) with 0.1% methanol. Serum-free media with 0.1% methanol without test compound was used as control. Cells were incubated with compounds at 37° C. for additional 24 hours, and the cultured media from each compound treated well was harvested for measurement of testosterone concentration by ELISA according to manufacturer's instruction (Assay Design). Testosterone concentration of each sample was plotted vs. the concentration of the test compounds.

[4] = target: T3, Cyp21 enzyme (Human HEK 293-Cyp21 stable transfected cells) (Homo sapiens, UniProt P08686); assay: CYP21-HEK293 enzymatic assay (IC50) (Biological Example 11); type: cell-based; settings: HEK 293-Cyp21 cells
T3 construct: expressed in transfected cells
T3 sequence (P08686 1-495): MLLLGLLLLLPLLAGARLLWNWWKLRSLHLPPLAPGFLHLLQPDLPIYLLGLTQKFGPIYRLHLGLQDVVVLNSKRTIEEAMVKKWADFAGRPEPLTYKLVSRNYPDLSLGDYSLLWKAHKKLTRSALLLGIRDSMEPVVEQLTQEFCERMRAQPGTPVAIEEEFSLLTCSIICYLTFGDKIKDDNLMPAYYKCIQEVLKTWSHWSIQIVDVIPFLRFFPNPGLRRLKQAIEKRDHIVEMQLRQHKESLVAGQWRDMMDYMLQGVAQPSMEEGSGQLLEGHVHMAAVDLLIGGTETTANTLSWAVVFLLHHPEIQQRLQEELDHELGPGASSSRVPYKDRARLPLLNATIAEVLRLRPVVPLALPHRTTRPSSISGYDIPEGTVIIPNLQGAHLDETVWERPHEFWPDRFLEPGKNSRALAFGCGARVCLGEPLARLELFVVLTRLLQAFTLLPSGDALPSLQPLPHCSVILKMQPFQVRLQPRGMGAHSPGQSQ
Description: This assay was used to determine compound activity against Cyp21 enzyme. […] The next day, 20 μL medium was carefully removed and 10 μL of 10× pre-made compounds in DMEM+10% FBS+10% methanol was transferred to the wells to final concentrations of 1000, 100, 10, 1, or 0.1 nM. Mock treatment was 1% methanol in growth media and the cells were left at 37° C., 5% CO2 for 5 hr. After the incubation, 10 μL of substrate progesterone (Sigma) was added to the wells to make a final concentration of 10 μM. The cells were incubated the cells at 37° C. for 20 hr. At the end of incubation, 90 μL of conditioned media was removed to measure DOC level by ELISA.
The next day, the plates were washed twice with 250 μl of wash solution (0.015M PBS pH 7.4 containing 0.05% Tween 20). After being washed, the wells were blocked with 250 μL blocking buffer (3% BSA in 0.025M PBS, pH 7.4) at 37° C. for 2 h. The plates were washed again 3 times as before, and then 90 μL of sample /standards (prepared in complete growth media) was added into the appropriate wells followed by 10 μL of antibody solution (1:450 rabbit anti-DOC in 0.6% BSA/PBS). The plates were incubated at room temperature for 2 h on a shaker. The contents of the wells were removed and the plate was washed 4 times. After the final wash, 100 μL of secondary antibody (1:12000 HRP-goat-anti-rabbit IgG conjugate 0.6% BSA/PBS) was added into each well. […] The plate was washed again 4 times and 100 μL of TMB substrate solution was added to each well. The plate was incubated at room temperature for 10 min. 100 μL of stop solution was added to each well and the optical density was read at 450 nm.
The mean absorbance value for each sample was used to determine the corresponding concentration from the standard curve. Data was analyzed with “log(antagonist) vs response variable slope” under “non-linear regression analysis” using Prism5 software.

[5] = target: T1, CYP17 (human testicular microsome); assay: CYP17 enzymatic assay (IC50) (Biological Example 4); type: biochemical
[6] = compound at 1 nM, read-out: Biological Example No. 12: CYP17 enzymatic assay % inhibition at 1 nM
[7] = testosterone, read-out: Biological Example No. 7: CYP17 cellular assay IC50
[8] = read-out: Biological Example No. 11: CYP21-HEK293 enzymatic assay IC50
[9] = human testicular microsome, read-out: Biological Example No. 4: CYP17 enzymatic assay IC50
[10] = testosterone, read-out: CYP17 cellular assay IC50 (Biological Example No. 7)
[11] = compound at 1 nM, read-out: CYP17 enzymatic assay % inhibition at 1 nM (Biological Example No. 12)
[12] = read-out: CYP21-HEK293 enzymatic assay IC50 (Biological Example No. 11)
[13] = human testicular microsome, read-out: CYP17 enzymatic assay IC50 (Biological Example No. 4)

With `C[C@]12CC[C@H](O)CC1=CC[C@@H]1[C@@H]2CC[C@]2(C)C(n3cncc3C#N)=CC[C@@H]12` [Compound 426, 1-((3S,10R,13S)-3-hydroxy-10,13-dimethyl-2,3,4,7,8,9,10,11,12,13,14,15-dodecahydro-1H-cyclopenta[a]phenanthren-17-yl)-1H-imidazole-5-carbonitrile] the “Biological Example No. 9: CYP11B enzymatic assay % inhibition at 100 nM” value [1] was “U (U means the compound had a percent inhibition of greater than or equal to 32%)” and the inhibition at 0.001 µM [2, 6] was 10 to 50%.

For `C[C@]12CCC(=O)C=C1C(F)CC1C2CC[C@]2(C)C(c3cccnc3)=CCC12` (stereo partly drawn) [D, (10R,13S)-6-fluoro-10,13-dimethyl-17-(pyridin-3-yl)-6,7,8,9,10,11,12,13,14,15-decahydro-1H-cyclopenta[a]phenanthren-3(2H)-one, reference compound], the half-life at 1 μM [3] was 1 to 50 min, the IC50 (CYP17 (H295R cells); testosterone by ELISA, 24 hours, read-out: Biological Example No. 7: CYP17 cellular assay IC50) was under 15 nM and the inhibition at 0.001 µM ([2]; 1 nM compound, DHEA by ELISA, read-out: Biological Example No. 12: CYP17 percent inhibition at 1 nM) was over 50%. For the same compound, the IC50 ([4]; DOC by ELISA, read-out: Biological Example No. 11: CYP21-HEK293 IC50) was over 1000 nM and the IC50 ([5]; human testicular microsome, DHEA by ELISA, read-out: Biological Example No. 4: CYP17 enzymatic assay IC50) was under 11 nM.

For `CC1CC2C(CC[C@]3(C)C(c4cccnc4)=CCC23)[C@@]2(C)CCNC(=O)C=C12` (stereo partly drawn) [Compound 368, (5aR,7aS)-5a,7a,12-trimethyl-8-(pyridin-3-yl)-3,4,5,5a,5b,6,7,7a,10,10a,11,12-dodecahydrocyclopenta[5,6]naphtho[1,2-d]azepin-2(10bH)-one], the half-life at 1 μM [3] was 1 to 50 min, the IC50 (CYP17 (H295R cells); [7]) was under 15 nM and the inhibition at 0.001 µM [2, 6] was over 50%. For the same compound, the IC50 [4, 8] was under 10 nM and the IC50 [5, 9] was under 11 nM.

With `C[C@]12CCNC(=O)C=C1C1(CC1)CC1C2CC[C@]2(C)C(c3cccnc3)=CCC12` (stereo partly drawn) [Compound 369, (5aR,7aS)-5a,7a-dimethyl-8-(pyridin-3-yl)-3,4,5,5a,5b,6,7,7a,10,10a,10b,11-dodecahydro-2H-spiro[cyclopenta[5,6]naphtho[1,2-d]azepine-12,1′-cyclopropan]-2-one] the half-life at 1 μM [3] was 1 to 50 min, the IC50 (CYP17 (H295R cells); [7]) was under 15 nM and the inhibition at 0.001 µM [2, 6] was 10 to 50%. For the same compound, the IC50 [4, 8] was under 10 nM and the IC50 [5, 9] was under 11 nM.

Compound `C[C@]12CC[C@H]3[C@@H](CCC4=CC(=O)CC[C@@]43C)C1=CC=C2c1cncc(F)c1` [Compound 352, (10R,13S)-17-(5-fluoropyridin-3-yl)-10,13-dimethyl-6,7,8,9,10,11,12,13-octahydro-1H-cyclopenta[a]phenanthren-3(2H)-one] has a half-life at 1 μM [3] of 1 to 50 min, an IC50 (CYP17 (H295R cells); [7]) of under 15 nM and an inhibition at 0.001 µM [2, 6] of over 50%. The IC50 [4, 8] was 10 to 100 nM and the IC50 [5, 9] was under 11 nM.

For `C[C@]12C=CC(=O)C=C1C1(CC1)C[C@@H]1[C@@H]2CC[C@]2(C)C(c3cccnc3)=CC[C@@H]12` [Compound 316, (10R,13S)-10,13-dimethyl-17-(pyridin-3-yl)-7,8,9,11,12,13,14,15-octahydrospiro[cyclopenta[a]phenanthrene-6,1′-cyclopropan]-3(10H)-one], the half-life at 1 μM [3] was 1 to 50 min, the IC50 (CYP17 (H295R cells); [7]) was under 15 nM and the inhibition at 0.001 µM [2, 6] was 10 to 50%. The IC50 [4, 8] was under 10 nM and the IC50 [5] was under 11 nM.

Work on `C=C1C[C@@H]2[C@H](CC[C@]3(C)C(c4cccnc4)=CC[C@@H]23)[C@@]2(C)C=CC(=O)C=C12` [Compound 311, (10R,13S)-10,13-dimethyl-6-methylene-17-(pyridin-3-yl)-6,7,8,9,10,11,12,13,14,15-decahydro-3H-cyclopenta[a]phenanthren-3-one] yielded a half-life at 1 μM [3] of 1 to 50 min, an IC50 (CYP17 (H295R cells); [10]) of under 15 nM and an inhibition at 0.001 µM [2, 11] of over 50%. The IC50 [4, 12] was under 10 nM and the IC50 [5, 13] was under 11 nM.

`C[C@]12CCNC(=O)C=C1C1CC1[C@@H]1[C@@H]2CC[C@]2(C)C(c3cncc(F)c3)=CC[C@@H]12` (stereo partly drawn) [Compound 388, (5aR,7aS)-8-(5-fluoropyridin-3-yl)-5a,7a-dimethyl-3,4,5,5a,5b,6,7,7a,10,10a,10b,10c,11,11a-tetradecahydro-2H-cyclopenta[5,6]cyclopropa[3,4]naphtho[1,2-d]azepin-2-one] gave a half-life at 1 μM [3] of 1 to 50 min, an IC50 (CYP17 (H295R cells); [7]) of under 15 nM and an inhibition at 0.001 µM [2, 6] of over 50%. It also gave an IC50 [4, 8] of over 1000 nM and an IC50 [5, 9] of under 11 nM.

`C[C@]12CC[C@H]3[C@@H](CCC4=CC(=O)C=C[C@@]43C)C1=CC=C2c1cccnc1` [Compound 290, (10R,13S)-10,13-dimethyl-17-(pyridin-3-yl)-6,7,8,9,10,11,12,13-octahydro-3H-cyclopenta[a]phenanthren-3-one] showed a half-life at 1 μM [3] of 1 to 50 min, an IC50 (CYP17 (H295R cells); [10]) of under 15 nM and an inhibition at 0.001 µM [2, 11] of over 50%. For the same compound, the IC50 [4, 12] was 10 to 100 nM and the IC50 [5, 13] was under 11 nM.

With `CC1C[C@@H]2[C@H](CC[C@]3(C)C(c4cccnc4)=CC[C@@H]23)[C@@]2(C)CCC(=O)C=C12` (stereo partly drawn) [Compound 309, (10R,13S)-6,10,13-trimethyl-17-(pyridin-3-yl)-6,7,8,9,10,11,12,13,14,15-decahydro-1H-cyclopenta[a]phenanthren-3(2H)-one] the half-life at 1 μM [3] was 1 to 50 min, the IC50 (CYP17 (H295R cells); [10]) was under 15 nM and the inhibition at 0.001 µM [2, 11] was over 50%. For the same compound, the IC50 [4, 12] was 10 to 100 nM and the IC50 [5] was under 11 nM.

`C=C1C[C@@H]2[C@H](CC[C@]3(C)C(c4cccnc4)=CC[C@@H]23)[C@@]2(C)CCC(=O)C=C12` [Compound 312, (10R,13S)-10,13-dimethyl-6-methylene-17-(pyridin-3-yl)-6,7,8,9,10,11,12,13,14,15-decahydro-1H-cyclopenta[a]phenanthren-3(2H)-one] gave a half-life at 1 μM [3] of 1 to 50 min, an IC50 (CYP17 (H295R cells); [10]) of under 15 nM and an inhibition at 0.001 µM [2, 11] of over 50%. For the same compound, the IC50 [4, 12] was 10 to 100 nM and the IC50 [5, 13] was under 11 nM.
